For test [1], the target named is Tyrosine-protein kinase ABL1 (Homo sapiens) (UniProt P00519). Briefly: Inhibition of human ABL1 assessed as residual activity at 1 uM using poly(Ala,Glu,Lys,Tyr)6:2:5:1 as substrate in presence of 33P-ATP by ProQinase assay relative to control.
Test [2] concerns the target Mitogen-activated protein kinase 9 (Homo sapiens) (UniProt P45984). Nature of the test: Inhibition of human JNK2 assessed as residual activity at 1 uM using ATF2 as substrate in presence of 33P-ATP by ProQinase assay relative to control.
Test [3] deals with Serine/threonine-protein kinase SIK2 (Homo sapiens) (UniProt Q9H0K1). Briefly: Inhibition of human SNF1LK2 assessed as residual activity at 1 uM using RBER-CHKtide as substrate in presence of 33P-ATP by ProQinase assay relative to control.
Test [4] addresses Mitogen-activated protein kinase 13 (Homo sapiens) (UniProt O15264). Nature of the test: Inhibition of P38delta (unknown origin) assessed as remaining activity at 1 uM by Kinome scan method relative to control.
Test [5] has as its target Tyrosine-protein kinase Fyn (Homo sapiens) (UniProt P06241). Nature of the test: Inhibition of human FYN assessed as residual activity at 1 uM using polyEY as substrate in presence of 33P-ATP by ProQinase assay relative to control.
Test [6] deals with T1, Phosphorylase b kinase gamma catalytic chain, liver/testis isoform (Homo sapiens) (UniProt P15735).
T1 sequence (whole entry): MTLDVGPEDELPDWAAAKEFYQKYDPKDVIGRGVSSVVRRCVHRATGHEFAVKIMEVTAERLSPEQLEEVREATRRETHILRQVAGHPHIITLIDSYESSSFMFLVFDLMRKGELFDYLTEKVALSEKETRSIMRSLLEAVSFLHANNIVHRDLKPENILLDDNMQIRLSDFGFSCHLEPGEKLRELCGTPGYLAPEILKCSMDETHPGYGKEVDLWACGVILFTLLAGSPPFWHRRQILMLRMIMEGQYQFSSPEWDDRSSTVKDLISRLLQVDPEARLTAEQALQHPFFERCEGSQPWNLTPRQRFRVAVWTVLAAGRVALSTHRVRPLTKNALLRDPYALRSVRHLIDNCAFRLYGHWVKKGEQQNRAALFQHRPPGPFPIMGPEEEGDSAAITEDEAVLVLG
Nature of the test: Inhibition of human PHKG2 assessed as residual activity at 1 uM using RBER-CHKtide as substrate in presence of 33P-ATP by ProQinase assay relative to control.

For test [7], the target named is Serine/threonine-protein kinase PAK 1 (Homo sapiens) (UniProt Q13153). Nature of the test: Inhibition of human PAK1 assessed as residual activity at 1 uM using bio-4xCHKT as substrate in presence of 33P-ATP by ProQinase assay relative to control.
Test [8] concerns the target Calcium/calmodulin-dependent protein kinase type II subunit delta (Homo sapiens) (UniProt Q13557). Nature of the test: Inhibition of CAMK2D (unknown origin) assessed as remaining activity at 1 uM by Kinome scan method relative to control.
Test [9] concerns the target T2, Serine/threonine-protein kinase DCLK2 (Homo sapiens) (UniProt Q8N568).
T2 sequence (whole entry): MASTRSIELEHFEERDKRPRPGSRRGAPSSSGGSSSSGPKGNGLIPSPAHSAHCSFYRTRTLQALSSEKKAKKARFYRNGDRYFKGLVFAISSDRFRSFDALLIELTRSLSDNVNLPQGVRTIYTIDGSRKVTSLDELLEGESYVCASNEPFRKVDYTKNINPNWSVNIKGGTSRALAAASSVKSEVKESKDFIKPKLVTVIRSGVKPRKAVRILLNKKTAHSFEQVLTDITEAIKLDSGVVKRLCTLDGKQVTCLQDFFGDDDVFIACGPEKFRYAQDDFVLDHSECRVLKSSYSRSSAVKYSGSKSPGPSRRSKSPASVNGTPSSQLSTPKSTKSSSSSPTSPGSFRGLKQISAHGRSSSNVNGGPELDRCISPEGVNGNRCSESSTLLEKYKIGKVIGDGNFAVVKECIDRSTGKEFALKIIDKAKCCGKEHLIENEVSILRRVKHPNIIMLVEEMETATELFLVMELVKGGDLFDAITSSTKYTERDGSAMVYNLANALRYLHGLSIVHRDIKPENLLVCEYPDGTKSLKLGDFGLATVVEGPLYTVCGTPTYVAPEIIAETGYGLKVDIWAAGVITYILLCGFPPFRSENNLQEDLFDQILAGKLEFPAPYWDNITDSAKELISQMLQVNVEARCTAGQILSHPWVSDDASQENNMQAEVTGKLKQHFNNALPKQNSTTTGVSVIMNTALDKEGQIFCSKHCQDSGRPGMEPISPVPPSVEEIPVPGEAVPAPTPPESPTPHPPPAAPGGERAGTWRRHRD
Nature of the test: Inhibition of human DCAMKL2 assessed as residual activity at 1 uM using RBER-CHKtide as substrate in presence of 33P-ATP by ProQinase assay relative to control.

In test [10] the target is Serine/threonine-protein kinase pim-3 (Homo sapiens) (UniProt Q86V86). Nature of the test: Inhibition of PIM3 (unknown origin) assessed as remaining activity at 1 uM by Kinome scan method relative to control.
Test [11] addresses Tyrosine-protein kinase CSK (Homo sapiens) (UniProt P41240). Nature of the test: Inhibition of human CSK assessed as residual activity at 1 uM using polyEY as substrate in presence of 33P-ATP by ProQinase assay relative to control.
The target of test [12] is Mitogen-activated protein kinase 8 (Homo sapiens) (UniProt P45983). Briefly: Inhibition of human JNK1 assessed as residual activity at 1 uM using ATF2 as substrate in presence of 33P-ATP by ProQinase assay relative to control.
Chain of Mitogen-activated protein kinase 8 (Homo sapiens) (P45983 whole entry): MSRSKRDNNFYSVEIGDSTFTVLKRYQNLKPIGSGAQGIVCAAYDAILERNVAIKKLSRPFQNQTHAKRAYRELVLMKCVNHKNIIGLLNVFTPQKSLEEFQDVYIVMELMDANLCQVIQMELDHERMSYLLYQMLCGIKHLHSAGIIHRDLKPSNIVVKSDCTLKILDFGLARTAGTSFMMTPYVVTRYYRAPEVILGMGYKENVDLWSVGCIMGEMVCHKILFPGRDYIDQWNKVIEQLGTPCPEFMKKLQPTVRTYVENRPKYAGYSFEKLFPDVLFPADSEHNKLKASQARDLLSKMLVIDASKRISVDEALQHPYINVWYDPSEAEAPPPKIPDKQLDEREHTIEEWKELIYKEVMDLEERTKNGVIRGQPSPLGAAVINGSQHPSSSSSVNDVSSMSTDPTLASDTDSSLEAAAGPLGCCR

Chain of Mitogen-activated protein kinase 13 (Homo sapiens) (O15264 whole entry): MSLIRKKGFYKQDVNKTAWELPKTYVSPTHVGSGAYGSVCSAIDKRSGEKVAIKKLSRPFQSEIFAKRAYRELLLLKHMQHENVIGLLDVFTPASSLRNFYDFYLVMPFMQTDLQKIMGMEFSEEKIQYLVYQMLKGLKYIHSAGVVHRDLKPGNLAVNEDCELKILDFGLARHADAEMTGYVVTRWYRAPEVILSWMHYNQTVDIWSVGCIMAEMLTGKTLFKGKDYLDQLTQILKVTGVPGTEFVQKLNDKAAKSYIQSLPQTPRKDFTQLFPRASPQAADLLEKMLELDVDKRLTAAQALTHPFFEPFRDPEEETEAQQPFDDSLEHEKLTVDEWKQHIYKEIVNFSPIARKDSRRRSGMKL
Chain of Serine/threonine-protein kinase PAK 1 (Homo sapiens) (Q13153 whole entry): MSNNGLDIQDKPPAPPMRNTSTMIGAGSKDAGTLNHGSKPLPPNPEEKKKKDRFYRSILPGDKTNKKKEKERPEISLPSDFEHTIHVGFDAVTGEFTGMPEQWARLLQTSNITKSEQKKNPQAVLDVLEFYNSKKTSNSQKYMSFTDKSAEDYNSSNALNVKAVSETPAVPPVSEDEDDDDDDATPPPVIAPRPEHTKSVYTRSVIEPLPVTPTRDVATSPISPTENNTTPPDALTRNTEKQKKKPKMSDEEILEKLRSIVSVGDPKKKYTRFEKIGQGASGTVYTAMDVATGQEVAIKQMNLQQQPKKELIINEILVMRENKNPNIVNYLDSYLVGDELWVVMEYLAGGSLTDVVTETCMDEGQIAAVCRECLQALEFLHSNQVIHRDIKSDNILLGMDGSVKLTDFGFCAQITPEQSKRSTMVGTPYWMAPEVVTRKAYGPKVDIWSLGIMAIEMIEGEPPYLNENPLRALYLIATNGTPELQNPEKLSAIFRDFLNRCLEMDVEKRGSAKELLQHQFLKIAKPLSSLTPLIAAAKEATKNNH
Chain of Mitogen-activated protein kinase 9 (Homo sapiens) (P45984 whole entry, looked up): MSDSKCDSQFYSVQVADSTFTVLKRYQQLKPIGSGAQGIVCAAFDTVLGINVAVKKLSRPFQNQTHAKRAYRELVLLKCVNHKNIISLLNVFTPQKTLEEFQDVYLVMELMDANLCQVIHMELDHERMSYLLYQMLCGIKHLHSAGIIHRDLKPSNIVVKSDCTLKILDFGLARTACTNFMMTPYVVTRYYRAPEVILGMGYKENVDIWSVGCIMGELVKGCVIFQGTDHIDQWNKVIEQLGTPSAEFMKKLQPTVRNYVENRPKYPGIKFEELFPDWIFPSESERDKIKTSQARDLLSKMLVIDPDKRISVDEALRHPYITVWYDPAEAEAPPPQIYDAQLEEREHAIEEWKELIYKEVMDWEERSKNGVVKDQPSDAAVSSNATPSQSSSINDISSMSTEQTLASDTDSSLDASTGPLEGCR
Chain of Serine/threonine-protein kinase SIK2 (Homo sapiens) (Q9H0K1 whole entry, looked up): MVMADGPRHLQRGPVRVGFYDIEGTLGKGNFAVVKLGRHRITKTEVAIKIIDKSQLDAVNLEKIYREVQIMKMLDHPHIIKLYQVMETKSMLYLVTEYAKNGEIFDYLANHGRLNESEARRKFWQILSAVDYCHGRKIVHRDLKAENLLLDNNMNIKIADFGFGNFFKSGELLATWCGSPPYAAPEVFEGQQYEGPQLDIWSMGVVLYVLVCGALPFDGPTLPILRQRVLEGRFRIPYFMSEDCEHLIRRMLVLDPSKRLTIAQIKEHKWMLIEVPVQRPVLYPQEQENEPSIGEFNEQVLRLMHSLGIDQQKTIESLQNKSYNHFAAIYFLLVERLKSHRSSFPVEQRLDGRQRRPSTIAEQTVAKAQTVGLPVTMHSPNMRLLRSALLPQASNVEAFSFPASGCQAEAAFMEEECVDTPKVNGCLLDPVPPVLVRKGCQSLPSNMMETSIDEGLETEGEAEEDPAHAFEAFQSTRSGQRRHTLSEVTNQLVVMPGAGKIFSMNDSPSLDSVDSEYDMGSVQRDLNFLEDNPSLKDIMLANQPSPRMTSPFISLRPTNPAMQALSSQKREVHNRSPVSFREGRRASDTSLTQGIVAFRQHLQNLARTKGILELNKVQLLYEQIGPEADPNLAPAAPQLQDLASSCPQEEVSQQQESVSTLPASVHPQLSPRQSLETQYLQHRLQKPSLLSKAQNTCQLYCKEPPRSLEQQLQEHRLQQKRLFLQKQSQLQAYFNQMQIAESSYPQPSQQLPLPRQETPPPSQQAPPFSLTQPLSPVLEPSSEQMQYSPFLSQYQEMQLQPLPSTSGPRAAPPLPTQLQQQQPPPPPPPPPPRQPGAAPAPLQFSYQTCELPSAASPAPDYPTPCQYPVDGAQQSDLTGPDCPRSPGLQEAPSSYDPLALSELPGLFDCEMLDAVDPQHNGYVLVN
Chain of Calcium/calmodulin-dependent protein kinase type II subunit delta (Homo sapiens) (Q13557 whole entry): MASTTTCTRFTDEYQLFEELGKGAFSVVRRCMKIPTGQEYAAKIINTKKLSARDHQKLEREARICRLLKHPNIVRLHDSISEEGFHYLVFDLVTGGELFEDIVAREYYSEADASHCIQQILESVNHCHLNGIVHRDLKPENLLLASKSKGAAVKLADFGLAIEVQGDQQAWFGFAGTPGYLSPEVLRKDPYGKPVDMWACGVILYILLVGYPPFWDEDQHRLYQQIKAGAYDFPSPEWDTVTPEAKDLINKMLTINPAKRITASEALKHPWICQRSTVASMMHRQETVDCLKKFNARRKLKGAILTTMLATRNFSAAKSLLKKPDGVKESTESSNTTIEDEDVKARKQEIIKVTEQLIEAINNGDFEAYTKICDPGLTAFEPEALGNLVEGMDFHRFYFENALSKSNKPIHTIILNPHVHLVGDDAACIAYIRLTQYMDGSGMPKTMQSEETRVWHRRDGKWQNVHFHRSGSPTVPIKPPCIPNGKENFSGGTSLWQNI
Chain of Tyrosine-protein kinase Fyn (Homo sapiens) (P06241 2-537 limits assumed): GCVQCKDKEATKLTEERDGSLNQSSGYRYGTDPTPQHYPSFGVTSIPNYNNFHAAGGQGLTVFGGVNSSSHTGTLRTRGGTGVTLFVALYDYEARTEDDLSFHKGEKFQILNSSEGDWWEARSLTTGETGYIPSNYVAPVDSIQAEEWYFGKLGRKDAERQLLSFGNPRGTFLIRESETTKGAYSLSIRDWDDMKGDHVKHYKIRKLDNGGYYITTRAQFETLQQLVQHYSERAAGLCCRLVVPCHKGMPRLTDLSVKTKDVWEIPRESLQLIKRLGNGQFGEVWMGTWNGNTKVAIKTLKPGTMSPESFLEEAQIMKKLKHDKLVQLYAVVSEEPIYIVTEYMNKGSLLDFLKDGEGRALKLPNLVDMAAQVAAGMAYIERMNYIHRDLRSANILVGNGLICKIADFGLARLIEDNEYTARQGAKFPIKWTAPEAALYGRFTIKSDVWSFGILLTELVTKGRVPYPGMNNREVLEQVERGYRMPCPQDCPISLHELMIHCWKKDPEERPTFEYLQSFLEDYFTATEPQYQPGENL
Chain of Tyrosine-protein kinase CSK (Homo sapiens) (P41240 2-450 limits assumed): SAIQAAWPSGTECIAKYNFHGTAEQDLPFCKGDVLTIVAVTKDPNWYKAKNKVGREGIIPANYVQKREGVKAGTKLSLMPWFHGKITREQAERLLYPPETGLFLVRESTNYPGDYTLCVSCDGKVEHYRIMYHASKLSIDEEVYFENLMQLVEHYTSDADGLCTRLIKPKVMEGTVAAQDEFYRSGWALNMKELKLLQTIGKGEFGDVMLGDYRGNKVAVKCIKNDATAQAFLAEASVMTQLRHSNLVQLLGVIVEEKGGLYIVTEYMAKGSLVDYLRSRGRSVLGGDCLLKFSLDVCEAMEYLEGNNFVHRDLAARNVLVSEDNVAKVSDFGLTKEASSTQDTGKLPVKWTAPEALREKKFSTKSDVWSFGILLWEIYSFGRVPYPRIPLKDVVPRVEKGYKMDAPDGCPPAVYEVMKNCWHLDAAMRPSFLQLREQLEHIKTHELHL

`O=C1c2ccc(Nc3ccc(F)cc3F)cc2CCc2ccc(OC[C@H](O)CO)cc21` [Skepinone-L]: the Activity in test [1] was 95%; in test [2], 58%; in [3], 86%; in test [4] it was 85%; in test [5] it was 124%; in test [6] it was 73%. Further, the Activity came out at 100% in test [7]; 100% in test [8]; 83% in test [9]; 100% in [10]; 111% in test [11]; 98% in test [12].
